Reference: US20170305943A1, “COMPOUNDS FOR THE TREATMENT OF BACTERIAL INFECTIONS” (priority 2014, published 2017)
Values after ≈ are worked out from the molar mass of the structure shown.

These molecules were tested on Clostridium difficile (Isolate ID ATCC 9689) (assay: Bacterial Assay: Determination of Antibacterial Activity (MIC, broth microdilution or agar dilution)). Conditions: Clostridioides difficile, ATCC9689, 48 h, read-out: C. difficile MIC Activity Range.
Format: cell-based
Experimental: Bacterial Assay: Determination of Antibacterial Activity Compounds of the invention were tested for antimicrobial activity by susceptibility testing in liquid or on solid media. Minimum inhibitory concentrations (MICs) for compounds against each strain were determined by the broth microdilution or agar dilution method according to the guidelines of the Clinical Laboratories and Standards Institute, formerly the National Committee for Clinical Laboratory Standards (Clinical Laboratories and Standards Institute. Methods for Dilution Antimicrobial Susceptibility Tests for Bacteria That Grow Anaerobically; Approved Standard-Seventh Edition. Document M11-A7, CLSI, Wayne, Pa., 2007, Clinical Laboratories and Standards Institute). Briefly MICs were determined by visible inspection after 48 hours of growth in the presence of compounds, cultures were grown at 37° C. in anaerobic gas packs using reinforced clostridial medium supplemented with 0.1% defribrinated horse blood. The bacterial strains tested include C. difficile (Clostridium difficile (Isolate ID ATCC 9689)) (Table 2) and two drug resistant clinical isolates (Clostridium difficile (Isolate ID BI-9) and Clostridium difficile (Isolate ID 027-01) (Table 3).
MICs were determined to be within the activity ranges “A” activity≦1.01 μg/mL; “B” activity>1.0 μg/mL-4.0 μg/mL; “C” activity>4.0 μg/mL-16 μg/mL

`NC(=O)c1c(F)ccc(OC(COC(=O)Cn2cccc2)c2nc(-c3ccc(C(F)(F)F)cc3)c(Br)o2)c1F` (stereo not drawn) [Compound 40, 2-{5-bromo-4-[4-(trifluoromethyl)phenyl]-1,3-oxazol-2-yl}-2-(3-carbamoyl-2,4-difluorophenoxy)ethyl 1H-pyrrol-l-ylacetate] and `CNC(=O)OCC(Oc1ccc(F)c(C(N)=O)c1F)c1nc(-c2ccc(C(F)(F)F)cc2)c(Br)o1` (stereo not drawn) [Compound 50, 2-{5-bromo-4-[4-(trifluoromethyl)phenyl]-1,3-oxazol-2-yl}-2-(3-carbamoyl-2,4-difluorophenoxy)ethyl methylcarbamate] cannot be ordered by MIC: under 1.01 mg/L for the first, under 1.01 mg/L for the second.

`NC(=O)c1c(F)ccc(O[C@@H](CO)c2nc(-c3ccc(C(F)(F)F)cc3)c(Br)o2)c1F` [Compound 41, 3-[(1S)-1-{5-bromo-4-[4-(trifluoromethyl)phenyl]-1,3-oxazol-2-yl}-2-hydroxyethoxy]-2,6-difluorobenzamide] and `NC(=O)c1c(F)ccc(OC(CCCO)c2nc(-c3ccc(C(F)(F)F)cc3)c(Br)o2)c1F` (stereo not drawn) [Compound 46, 3-(1-{5-bromo-4-[4-(trifluoromethyl)phenyl]-1,3-oxazol-2-yl}-4-hydroxybutoxy)-2,6-difluorobenzamide] fall in the same range of MIC: 1 to 4 mg/L (≈ 1.97 to 7.89 µM) for the first, 1 to 4 mg/L (≈ 1.87 to 7.47 µM) for the second.

`NC(=O)c1c(F)ccc(OC(COC(=O)CCCN2C(=O)c3ccccc3C2=O)c2nc(-c3ccc(C(F)(F)F)cc3)c(Br)o2)c1F` (stereo not drawn) [Compound 42, 2-{5-bromo-4-[4-(trifluoromethyl)phenyl]-1,3-oxazol-2-yl}-2-(3-carbamoyl-2,4-difluorophenoxy)ethyl 4-(1,3-dioxo-1,3-dihydro-2H-isoindo1-2-yl)butanoate] and `NC(=O)c1c(F)ccc(O[C@H](COC(=O)CCC(=O)O)c2nc(-c3ccc(C(F)(F)F)cc3)c(Br)o2)c1F` [Compound 70, 4-[(2R)-2-{5-bromo-4-[4-(trifluoromethyl)phenyl]-1,3-oxazol-2-yl}-2-(3-carbamoyl-2,4-difluorophenoxy)ethoxy]-4-oxobutanoic acid] cannot be ordered by MIC: under 1.01 mg/L for the first, under 1.01 mg/L for the second.

`NC(=O)c1c(F)ccc(OC(COP(=O)(O)O)c2nc(-c3ccc(C(F)(F)F)cc3)c(Br)o2)c1F` (stereo not drawn) [Compound 43, 2-{5-bromo-4-[4-(trifluoromethyl)phenyl]-1,3-oxazol-2-yl}-2-(3-carbamoyl-2,4-difluorophenoxy)ethyl dihydrogen phosphate] and `NC(=O)c1c(F)ccc(OC(COC(=O)NCCO)c2nc(-c3ccc(C(F)(F)F)cc3)c(Br)o2)c1F` (stereo not drawn) [Compound 59, 2-{5-bromo-4-[4-(trifluoromethyl)phenyl]-1,3-oxazol-2-yl}-2-(3-carbamoyl-2,4-difluorophenoxy)ethyl (2-hydroxyethyl)carbamate] cannot be ordered by MIC: 1 to 4 mg/L for the first, under 1.01 mg/L for the second.

First: CCOC(=O)COCC(Oc1ccc(F)c(C(N)=O)c1F)c1nc(-c2ccc(C(F)(F)F)cc2)c(Br)o1 (stereo not drawn) [Compound 44, ethyl [2-{5-bromo-4-[4-(trifluoromethyl)phenyl]-1,3-oxazol-2-yl}-2-(3-carbamoyl-2,4-difluorophenoxy)ethoxy]acetate]
Second: COCCNC(=O)OCC(Oc1ccc(F)c(C(N)=O)c1F)c1nc(-c2ccc(C(F)(F)F)cc2)c(Br)o1 (stereo not drawn) [Compound 60, 2-{5-bromo-4-[4-(trifluoromethyl)phenyl]-1,3-oxazol-2-yl}-2-(3-carbamoyl-2,4-difluorophenoxy)ethyl (2-methoxyethyl)carbamate]
The MIC of the first is higher: 4 to 16 mg/L (≈ 6.74 to 27 µM) for the first, under 1.01 mg/L for the second.

`CC(=O)OCCCC(Oc1ccc(F)c(C(N)=O)c1F)c1nc(-c2ccc(C(F)(F)F)cc2)c(Br)o1` (stereo not drawn) [Compound 45, 4-{5-bromo-4-[4-(trifluoromethyl)phenyl]-1,3-oxazol-2-yl}-4-(3-carbamoyl-2,4-difluorophenoxy)butyl acetate] and `CNC(=O)CCC(Oc1ccc(F)c(C(N)=O)c1F)c1nc(-c2ccc(C(F)(F)F)cc2)c(Br)o1` (stereo not drawn) [Compound 48, 3-[1-{5-bromo-4-[4-(trifluoromethyl)phenyl]-1,3-oxazol-2-yl}-4-(methylamino)-4-oxobutoxy]-2,6-difluorobenzamide] fall in the same range of MIC: 1 to 4 mg/L for the first, 1 to 4 mg/L (≈ 1.78 to 7.11 µM) for the second.

`CC(=O)OCC(Oc1ccc(F)c(C(N)=O)c1F)c1nc(-c2ccc(OC(F)(F)F)cc2)c(Br)o1` (stereo not drawn) [Compound 51, 2-{5-bromo-4-[4-(trifluoromethoxy)phenyl]-1,3-oxazol-2-yl}-2-(3-carbamoyl-2,4-difluorophenoxy)ethyl acetate] and `NC(=O)c1c(F)ccc(OC(CO)c2nc(-c3ccc(OC(F)(F)F)cc3)c(Br)o2)c1F` (stereo not drawn) [Compound 52, 3-(1-{5-bromo-4-[4-(trifluoromethoxy)phenyl]-1,3-oxazol-2-yl}-2-hydroxyethoxy)-2,6-difluorobenzamide] cannot be ordered by MIC: under 1.01 mg/L for the first, under 1.01 mg/L for the second.

`NC(=O)c1c(F)ccc(OC(CCC(O)CO)c2nc(-c3ccc(C(F)(F)F)cc3)c(Br)o2)c1F` (stereo not drawn) [Compound 53, 3-[(1-{5-bromo-4-[4-(trifluoromethyl)phenyl]-1,3-oxazol-2-yl}-4,5-dihydroxypentyl)oxy]-2,6-difluorobenzamide] and `CSc1oc(C(CO)Oc2ccc(F)c(C(N)=O)c2F)nc1-c1ccc(C(F)(F)F)cc1` (stereo not drawn) [Compound 69, 2,6-difluoro-3-(2-hydroxy-1-{5-(methylthio)-4-[4-(trifluoromethyl)phenyl]-1,3-oxazol-2-yl}ethoxy)benzamide] cannot be ordered by MIC: 1 to 4 mg/L (≈ 1.77 to 7.08 µM) for the first, under 1.01 mg/L for the second.

`COC(=O)CCNC(=O)OCC(Oc1ccc(F)c(C(N)=O)c1F)c1nc(-c2ccc(C(F)(F)F)cc2)c(Br)o1` (stereo not drawn) [Compound 54, methyl N-{[2-{5-bromo-4-[4-(trifluoromethyl)phenyl]-1,3-oxazol-2-yl}-2-(3-carbamoyl-2,4-difluorophenoxy)ethoxy]carbonyl}-beta-alaninate] and `CC(C)(C)OC(=O)NCCNC(=O)OCC(Oc1ccc(F)c(C(N)=O)c1F)c1nc(-c2ccc(C(F)(F)F)cc2)c(Br)o1` (stereo not drawn) [Compound 55, 2-{5-bromo-4-[4-(trifluoromethyl)phenyl]-1,3-oxazol-2-yl}-2-(3-carbamoyl-2,4-difluorophenoxy)ethyl tert-butyl ethane-1,2-diylbiscarbamate] fall in the same range of MIC: 1 to 4 mg/L (≈ 1.57 to 6.29 µM) for the first, 1 to 4 mg/L (≈ 1.44 to 5.77 µM) for the second.

`CN(CCNC(=O)OCC(Oc1ccc(F)c(C(N)=O)c1F)c1nc(-c2ccc(C(F)(F)F)cc2)c(Br)o1)C(=O)OC(C)(C)C` (stereo not drawn) [Compound 56, tert-butyl [2-({[2-{5-bromo-4-[4-(trifluoromethyl)phenyl]-1,3-oxazol-2-yl}-2-(3-carbamoyl-2,4-difluorophenoxy)ethoxy]carbonyl}amino)ethyl]methyl carbamate (non-preferred name)] and `Cc1nnc(CNC(=O)OCC(Oc2ccc(F)c(C(N)=O)c2F)c2nc(-c3ccc(C(F)(F)F)cc3)c(Br)o2)o1` (stereo not drawn) [Compound 65, 2-{5-bromo-4-[4-(trifluoromethyl)phenyl]-1,3-oxazol-2-yl}-2-(3-carbamoyl-2,4-difluorophenoxy)ethyl [(5-methyl-1,3,4-oxadiazol-2-yl)methyl]carbamate] fall in the same range of MIC: 1 to 4 mg/L (≈ 1.41 to 5.65 µM) for the first, 1 to 4 mg/L (≈ 1.55 to 6.19 µM) for the second.

Compared with `NC(=O)c1c(F)ccc(OC(COC(=O)N2CCOCC2)c2nc(-c3ccc(C(F)(F)F)cc3)c(Br)o2)c1F` (stereo not drawn) [Compound 58, 2-{5-bromo-4-[4-(trifluoromethyl)phenyl]-1,3-oxazol-2-yl}-2-(3-carbamoyl-2,4-difluorophenoxy)ethyl morpholine-4-carboxylate], `Cc1noc(CNC(=O)OCC(Oc2ccc(F)c(C(N)=O)c2F)c2nc(-c3ccc(C(F)(F)F)cc3)c(Br)o2)n1` (stereo not drawn) [Compound 68, 2-{5-bromo-4-[4-(trifluoromethyl)phenyl]-1,3-oxazol-2-yl}-2-(3-carbamoyl-2,4-difluorophenoxy)ethyl [(3-methyl-1,2,4-oxadiazol-5-yl)methyl]carbamate] is lower in MIC: 4 to 16 mg/L (≈ 6.45 to 25.8 µM) for the first, 1 to 4 mg/L (≈ 1.55 to 6.19 µM) for the second.

`NC(=O)c1c(F)ccc(OC(COC(=O)NCc2ccccn2)c2nc(-c3ccc(C(F)(F)F)cc3)c(Br)o2)c1F` (stereo not drawn) [Compound 61, 2-{5-bromo-4-[4-(trifluoromethyl)phenyl]-1,3-oxazol-2-yl}-2-(3-carbamoyl-2,4-difluorophenoxy)ethyl (pyridin-2-ylmethyl)carbamate] and `NC(=O)c1c(F)ccc(OC(COC(=O)NCc2cccnc2)c2nc(-c3ccc(C(F)(F)F)cc3)c(Br)o2)c1F` (stereo not drawn) [Compound 62, 2-{5-bromo-4-[4-(trifluoromethyl)phenyl]-1,3-oxazol-2-yl}-2-(3-carbamoyl-2,4-difluorophenoxy)ethyl (pyridin-3-ylmethyl)carbamate] fall in the same range of MIC: 1 to 4 mg/L (≈ 1.56 to 6.24 µM) for the first, 1 to 4 mg/L (≈ 1.56 to 6.24 µM) for the second.

`NC(=O)c1c(F)ccc(OC(COC(=O)NCc2ccncc2)c2nc(-c3ccc(C(F)(F)F)cc3)c(Br)o2)c1F` (stereo not drawn) [Compound 63, 2-{5-bromo-4-[4-(trifluoromethyl)phenyl]-1,3-oxazol-2-yl}-2-(3-carbamoyl-2,4-difluorophenoxy)ethyl (pyridin-4-ylmethyl)carbamate] and `NC(=O)c1c(F)ccc(OC(COC(=O)Nc2ccncc2)c2nc(-c3ccc(C(F)(F)F)cc3)c(Br)o2)c1F` (stereo not drawn) [Compound 67, 2-{5-bromo-4-[4-(trifluoromethyl)phenyl]-1,3-oxazol-2-yl}-2-(3-carbamoyl-2,4-difluorophenoxy)ethyl pyridin-4-ylcarbamate] cannot be ordered by MIC: under 1.01 mg/L for the first, 1 to 4 mg/L (≈ 1.59 to 6.38 µM) for the second.

`CN(Cc1ccncc1)C(=O)OCC(Oc1ccc(F)c(C(N)=O)c1F)c1nc(-c2ccc(C(F)(F)F)cc2)c(Br)o1` (stereo not drawn) [Compound 71, 2-{5-bromo-4-[4-(trifluoromethyl)phenyl]-1,3-oxazol-2-yl}-2-(3-carbamoyl-2,4-difluorophenoxy)ethyl methyl(pyridin-4-ylmethyl)carbamate] was tested, and the MIC was 4 to 16 mg/L (≈ 6.1 to 24.4 µM).
